Data from patent US20260284011A1, “COMPOUNDS FOR RESTORING SUSCEPTIBILITY TO BETA-LACTAM ANTIBIOTICS” (UNIVERSITY OF NOTRE DAME DU LAC, priority 2023, published 2026).
Read-outs that look alike come from different tables or passages of the source.

Assay: PK study, plasma and thighs
Assay type: in vivo, mice
Settings: mouse; for Cmax at 4 h: sc, single subcutaneous dose 25 mg·kg^−1; for Cmax at 4 h / concentration at 8 h: mice
Protocol: Pharmacokinetics of Compound 4 and In Vivo Efficacy. We next evaluated the pharmacokinetics (PK) of compound 4 and its distribution to the thighs (sites of infection in the disease model) after a single subcutaneous dose at 25 mg·kg^−1 to mice.
Animals. Outbred 8-week-old female ICR mice for PK and neutropenic thigh infection studies were purchased from Envigo, Indianapolis, IN. The average weight of the mice for the PK study was 30 g (range 26.1 to 33.1 g); mice in the neutropenic thigh infection weights ranged from 24.2 to 37.7 g and were on average 29 g at the initiation of the study. Mice were housed in polycarbonate shoebox cages (for the PK study) or in disposable cages (for the infection studies) with ¼-inch corncob (The Andersons Inc., Maumee, OH) and Alpha-Dri (Shepherd Specialty Papers, Inc., Richland, MI) bedding with a 12-h light/dark cycle at 72° F. The animals were given food (Teklad 2918 irradiated extruded rodent diet) and water ad libitum. The food and water were autoclaved for the infection studies. All procedures were performed in accordance with and approved by the University of Notre Dame Institutional Animal Care and Use Committee.
PK study. Mice (n=15) were given a single subcutaneous dose of compound 4 at 25 mg·kg^−1 (100 μL of 7.5 mg-mL-1 solution in 20% DMSO/20% Tween-80/60% sterilized water). At 0.5, 1, 2, 4, and 8 h, mice were euthanized. Terminal blood was collected by cardiac puncture into heparinized (sodium heparin, Sigma-Aldrich, St. Louis, MO) syringes, and centrifuged (20,000×g at 4° C. for 15 min) to obtain plasma. A 60-μL aliquot of plasma was mixed with 60 μL of a 10 μg·mL^−1 solution of internal standard in acetonitrile. After centrifugation (17,000×g for 10 min), a 60-μL of the supernatant was taken for ultraperformance liquid chromatography (UPLC) analysis with UV detection.
Thighs were excised, weighed, and mixed with 100 μL of 10 μg·mL^−1 of internal standard in acetonitrile. Acetonitrile (900 μL) was added, and the mixture was homogenized on a Bullet blender (Next Advance, Inc., Averill Park, NY). After centrifugation at 17,000×g for 10 min, the supernatant was collected. The extraction was repeated two additional times. The combined supernatants were concentrated on a speed vac. The residue was dissolved in 100 μL of acetonitrile, and the mixture was centrifuged. A 60-μL aliquot of the supernatant was placed in an autosampler vial.
Plasma and thigh samples were analyzed on a Waters Acquity UPLC (Waters Corp., Milford, MA) coupled with a diode array detector with UV detection at 320-330 nm. A C18 Atlantis™ T3 column 2.1 i.d.×100 mm length 3 μm-particle size column was used at a flow rate of 0.5 mL/min. The gradient consisted of 0.5-min from 80% A/20% B to 65% A/35% B, 4.5-min to 25% A/75% B, 0.5-min to 65% A/35% B, 2-min to 80% A/20% B, where A=0.1% formic acid in water and B=0.1% formic acid in acetonitrile. Internal standard and compound 4 eluted at 4.2 and 4.6 min, respectively.
Calibration curves containing known concentrations of compound 4 (ranging from 0 to 200 μg·g^−1 tissue for thighs or 0 to 40 μg·mL^−1 for plasma) and internal standard in blank control thigh tissue or control plasma were prepared. Concentrations in the thighs and plasma were determined from the calibration curve regression parameters relative to internal standard.

SMILES: N#Cc1ccc2nc(SCB(O)O)n(Cc3ccc(C(F)(F)F)cc3C(F)(F)F)c2c1 [Compound 4, (((1-(2,4-bis(trifluoro-methyl)benzyl)-6-cyano-1H-benzo[d]imidazol-2-yl)thio)methyl)boronic acid]
- Tmax (plasma and thigh, plasma and thighs, 25 mg·kg^−1 sc, read-out: time at which maximum concentrations were achieved): 4 h
- Cmax at 4 h (plasma, read-out: Maximum concentration in plasma): 8500 ng/mL
- concentration at 8 h (plasma, 25 mg·kg^−1 sc, read-out: concentration at 8 h in plasma): 3900 ng/mL
- Cmax at 4 h (thigh, read-out: Maximum concentration in thighs): 28000 ng/mL
- concentration at 8 h (thigh, 25 mg·kg^−1 sc, read-out: concentration at 8 h in thighs): 20000 ng/mL
